Experimental data as given in US20240082342A1, “PEPTIDE THERAPEUTICS FOR INCREASING LUNG CELL VIABILITY” (BOARD OF REGENTS, THE UNIVERSITY OF TEXAS SYSTEM, priority 2018, published 2024).

Tested on: A2Cs and lungs of WT mice with CLP injury
Assay: Cecal ligation puncture (CLP) sepsis-induced ALI in WT mice
Assay type: in vivo, mouse
Method: This model was described in detail in publication of the present inventor and colleagues, Gao, R et al., Am. J. Physiol. Mol. Physiol, 2015, 308:L847-L853.
WT mice were injected IP with vehicle, 1.5 mg/kg of CSP or control peptide (CP) 24 h after CLP injury. Sham-operated mice served as controls. Total RNA isolated from the lungs of these mice 72 h after CLP was quantitated for IL-17A mRNA by real-time PCR.
A2Cs were isolated from the lungs of these mice 72 h after CLP, and immunoblotted to assess changes in PAI-1, p53 and caspase-3 activation. All were increased by 72 h during CLP injury.
Mice were injected IP with CSP or control peptide (CP) 24 h after CLP injury. A2Cs isolated from these mice 72 h after CLP injury were immunoblotted for caveolin-1 and β-actin. Lysates of A2Cs from WT mice exposed to the above conditions were immunoprecipitated (IP) for PP2A-C and immunoblotted (IB) for caveolin-1 (Cav1) to assess their interaction.
Mice treated with or without CSP or CP 24 h after CLP injury were euthanized 72 h later and. lung tissues subjected to H&E staining to assess changes in lung inflammation. Lung homogenates and BAL fluids were analyzed for myeloperoxidase (MPO) to access PMN accumulation.
Mice were IP injected with CSP, CP or vehicle 24 h after CLP injury. Total RNA isolated from A2Cs of WT mice with or without CLP, CLP+CSP or CLP+CP 72 h after CLP induced ALI was reverse transcribed and subjected to real time PCR.
A2Cs isolated from mice with CLP, CLP+CSP or CLP+CP were immunoblotted for SP-C, thyroid transcription factor-1 (TTF-1) and β-actin. TTF-1 controls transcription of SP-C.
A2Cs isolated from mice 72 h after IP injection with CSP or CP alone without CLP injury and the lysates were immunoblotted for changes in SP-C expression. Lysates of A2Cs from uninjured (sham-operated) or CLP mice were also used for comparison.

Sequence: DGIWKASFTTFTVTKYWFYR (listed as Homo sapiens) [CSP, 20 residue caveolin-1 scaffolding domain peptide]
- IL-17A in lung tissues (1.5 mg/kg IP 24 h after CLP, 72 h): suppressed sepsis induced IL-17A
- miR-34a expression in A2Cs (real time PCR, normalized to U6) (72 h after CLP): significantly reduced
- A2C apoptosis, p53 and PAI-1 expression (IP 24 h after CLP, 72 h): concurrent inhibition of A2C apoptosis and p53 and PAI-1 expression
- A2C caveolin-1 interaction with PP2A-C (IP/IB) (IP 24 h after CLP, 72 h): inhibited the A2C caveolin-1 interaction with PP2A-C
- accumulation of PMN (MPO, H&E) (IP 24 h after CLP, 72 h): significantly inhibited accumulation of PMN
- SP-C expression by A2Cs (normal lungs, without CLP injury, 72 h after IP): induced SP-C expression
- SP-C expression by A2Cs (sepsis-induced ALI): induction of SP-C expression
- inhibition of miR-34a in A2Cs (vs CLP or CLP+CP, 3 days after injury): 7 fold
